Assays:
Assay in all cases: relative viability (nuclei count vs DMSO), 5 days (fraction); higher = more cells survive
[1] = system: NCI-H1395
In short: (§1)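 Cells from lung cancer lines were seeded into 1536-well plates and, one day later, dosed by pin tool. Treatments were either a single drug or a fixed dose of an anchor drug with five library-drug doses (not always all listed) in √10 steps. After 5 days, nuclei were stained in a one-step fixation (final 0.05% Triton X-100, 1% formaldehyde, 1 ug/ml Hoechst) and counted on 4× images, and relative viability is the treated-to-vehicle nuclei ratio, as the median of duplicate plates.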

[2] = system: NCI-H1651
In short: as §1

[3] = system: NCI-H661
In short: as §1

[4] = system: NCI-H1915
In short: as §1

[5] = system: NCI-H2228
In short: as §1

[6] = system: NCI-H2347
In short: as §1

[7] = system: NCI-H2087
In short: as §1

[8] = system: NCI-H1944
In short: as §1

[9] = system: NCI-H1793
In short: as §1

[10] = system: H3255
In short: as §1

[11] = system: NCI-H1437
In short: as §1

[12] = system: EMC-BAC-2
In short: as §1

[13] = system: NCI-H2085
In short: as §1

[14] = system: CAL-12T
In short: as §1

[15] = system: NCI-H1755
In short: as §1

[16] = system: LC-2-ad
In short: as §1

[17] = system: LK-2
In short: as §1

[18] = system: PC-3 [JPC-3]
In short: as §1

[19] = system: SK-LU-1
In short: as §1

[20] = system: COR-L 105
In short: as §1

COCC1(CO)C(=O)C2CCN1CC2 (configuration not stated) [PRIMA-1MET] + CS(=O)(=O)CCNCc1ccc(-c2ccc3ncnc(Nc4ccc(OCc5cccc(F)c5)c(Cl)c4)c3c2)o1 [Lapatinib] (partner 2 µM)
relative viability ([1]; first compound 0.2 µM): 0.922
relative viability ([1]; first compound 0.6325 µM): 0.701
relative viability ([1]; first compound 2 µM): 1.09
relative viability ([1]; first compound 6.325 µM): 0.89
relative viability ([1]; first compound 20 µM): 0.908
relative viability ([2]; first compound 0.2 µM): 0.917
relative viability ([2]; first compound 0.6325 µM): 0.731
relative viability ([2]; first compound 2 µM): 0.659
relative viability ([2]; first compound 6.325 µM): 0.839
relative viability ([2]; first compound 20 µM): 0.736
relative viability ([3]; first compound 0.2 µM): 0.531
relative viability ([3]; first compound 0.6325 µM): 0.467
relative viability ([3]; first compound 6.325 µM): 0.493
relative viability ([3]; first compound 20 µM): 0.266
relative viability ([4]; first compound 0.2 µM): 1.07
relative viability ([4]; first compound 0.6325 µM): 0.845
relative viability ([4]; first compound 2 µM): 0.864
relative viability ([4]; first compound 6.325 µM): 0.925
relative viability ([4]; first compound 20 µM): 0.958
relative viability ([5]; first compound 0.2 µM): 1.12
relative viability ([5]; first compound 0.6325 µM): 0.834
relative viability ([5]; first compound 2 µM): 1.59
relative viability ([5]; first compound 6.325 µM): 1.23
relative viability ([5]; first compound 20 µM): 0.0337
relative viability ([6]; first compound 0.2 µM): 0.939
relative viability ([6]; first compound 0.6325 µM): 0.856
relative viability ([6]; first compound 2 µM): 0.57
relative viability ([6]; first compound 6.325 µM): 0.918
relative viability ([6]; first compound 20 µM): 1.06
relative viability ([7]; first compound 0.2 µM): 0.848
relative viability ([7]; first compound 0.6325 µM): 0.813
relative viability ([7]; first compound 2 µM): 0.848
relative viability ([7]; first compound 6.325 µM): 1.22
relative viability ([7]; first compound 20 µM): 0.919
relative viability ([8]; first compound 0.2 µM): 0.971
relative viability ([8]; first compound 0.6325 µM): 0.6
relative viability ([8]; first compound 6.325 µM): 0.836
relative viability ([8]; first compound 20 µM): 0.823
relative viability ([9]; first compound 0.2 µM): 0.707
relative viability ([9]; first compound 0.6325 µM): 0.68
relative viability ([9]; first compound 6.325 µM): 0.592
relative viability ([9]; first compound 20 µM): 0.646
relative viability ([10]; first compound 0.2 µM): 0.231
relative viability ([10]; first compound 0.6325 µM): 0.21
relative viability ([10]; first compound 2 µM): 0.225
relative viability ([10]; first compound 6.325 µM): 0.237
relative viability ([10]; first compound 20 µM): 0.195
relative viability ([11]; first compound 0.2 µM): 0.936
relative viability ([11]; first compound 0.6325 µM): 0.703
relative viability ([11]; first compound 2 µM): 0.765
relative viability ([11]; first compound 6.325 µM): 0.82
relative viability ([11]; first compound 20 µM): 0.694
relative viability ([12]; first compound 0.2 µM): 0.918
relative viability ([12]; first compound 0.6325 µM): 0.895
relative viability ([12]; first compound 2 µM): 0.766
relative viability ([12]; first compound 6.325 µM): 0.89
relative viability ([12]; first compound 20 µM): 0.897
relative viability ([13]; first compound 0.2 µM): 0.814
relative viability ([13]; first compound 0.6325 µM): 0.591
relative viability ([13]; first compound 2 µM): 0.523
relative viability ([13]; first compound 6.325 µM): 0.54
relative viability ([13]; first compound 20 µM): 0.493
relative viability ([14]; first compound 0.2 µM): 0.704
relative viability ([14]; first compound 0.6325 µM): 0.736
relative viability ([14]; first compound 2 µM): 0.571
relative viability ([14]; first compound 6.325 µM): 0.677
relative viability ([14]; first compound 20 µM): 0.388
relative viability ([15]; first compound 0.2 µM): 1.04
relative viability ([15]; first compound 0.6325 µM): 0.901
relative viability ([15]; first compound 2 µM): 0.846
relative viability ([15]; first compound 6.325 µM): 1.03
relative viability ([15]; first compound 20 µM): 0.907
relative viability ([16]; first compound 0.2 µM): 1.15
relative viability ([16]; first compound 0.6325 µM): 0.831
relative viability ([16]; first compound 2 µM): 0.769
relative viability ([16]; first compound 6.325 µM): 0.936
relative viability ([16]; first compound 20 µM): 0.963
relative viability ([17]; first compound 0.2 µM): 0.885
relative viability ([17]; first compound 0.6325 µM): 0.755
relative viability ([17]; first compound 2 µM): 0.6
relative viability ([17]; first compound 6.325 µM): 0.662
relative viability ([17]; first compound 20 µM): 0.18
relative viability ([18]; first compound 0.2 µM): 0.544
relative viability ([18]; first compound 0.6325 µM): 0.392
relative viability ([18]; first compound 2 µM): 0.456
relative viability ([18]; first compound 6.325 µM): 0.447
relative viability ([18]; first compound 20 µM): 0.478
relative viability ([19]; first compound 0.2 µM): 1.12
relative viability ([19]; first compound 0.6325 µM): 0.667
relative viability ([19]; first compound 2 µM): 0.61
relative viability ([19]; first compound 6.325 µM): 0.784
relative viability ([19]; first compound 20 µM): 0.235
relative viability ([20]; first compound 0.2 µM): 0.45
relative viability ([20]; first compound 0.6325 µM): 0.33
relative viability ([20]; first compound 2 µM): 0.312
relative viability ([20]; first compound 6.325 µM): 0.419
relative viability ([20]; first compound 20 µM): 0.22

From the supplement of paper PMC10307832
